Experimental data as given in patent US20240408169A1 (priority 2023, published 2024).
*1 amine or outer side, *2 acyl side, *3 side chain or, on linkers, in order; H or OH if unused. Where a SMILES comes first, the peptide text is derived from it. Bridges are numbered along the chain shown (N, C = ends). [ ]: non-standard residue; d: D form. The star is where a group is joined. X53 = CN1[C@@H]2CC[C@H]1CN(c1ccc(-c3ccc(Cl)cc3C[C@@H](C(=O)[*:2])N(C)[*:1])cc1)C2; X73 = CN([C@@H](Cc1cc(Cl)ccc1-c1ccc(N2CCN(Cc3cnn(C)c3)CC2)cc1)C(=O)[*:2])[*:1]; X106 = CN([C@@H](Cc1cc(Cl)ccc1-c1ccc(N2CCN(Cc3ccccn3)CC2)cc1)C(=O)[*:2])[*:1]; X38 = CN([C@@H](Cc1cc(Cl)ccc1-c1ccc(N2C[C@H]3COC[C@H]3C2)cc1)C(=O)[*:2])[*:1]; NMePhe(2-(4-MorPh),5-Cl) = CN[C@@H](Cc1cc(Cl)ccc1-c1ccc(N2CCOCC2)cc1)C(=O)O; X21 = CN([C@@H](Cc1cc(Cl)ccc1-c1ccc(N2CCN3CCOC[C@H]3C2)cc1)C(=O)[*:2])[*:1]; X85 = CN([C@@H](Cc1cc(Cl)ccc1-c1ccc([C@]23CCOC[C@H]2C3)nc1)C(=O)[*:2])[*:1]; X45 = CN1CCC(F)(c2ccc(-c3ccc(Cl)cc3C[C@@H](C(=O)[*:2])N(C)[*:1])cc2)CC1; X103 = CN1CCC(Oc2ccc(-c3ccc(Cl)cc3C[C@@H](C(=O)[*:2])N(C)[*:1])cc2)CC1; X40 = CN1CCN(Cc2ccc(-c3ccc(Cl)cc3C[C@@H](C(=O)[*:2])N(C)[*:1])cc2)CC1; X31 = CN1CCC(c2ccc(-c3ccc(Cl)cc3C[C@@H](C(=O)[*:2])N(C)[*:1])cc2)CC1; X108 = CN([C@@H](Cc1cc(Cl)ccc1-c1ccc(CN2CCOCC2)cc1)C(=O)[*:2])[*:1]; X81 = COc1cc(N2CCOCC2)ccc1-c1ccc(Cl)cc1C[C@@H](C(=O)[*:2])N(C)[*:1]; X91 = COc1cc(-c2ccc(Cl)cc2C[C@@H](C(=O)[*:2])N(C)[*:1])ccc1N1CCOCC1; NMehhhLys(Me) = CN([C@@H](CCCCCCCN(C)[*:3])C(=O)[*:2])[*:1]; cBuCO(3,3-F2-1-CF3) = O=C(C1(C(F)(F)F)CC(F)(F)C1)*; Pro(trans-4-F) = O=C(O)[C@@H]1C[C@@H](F)CN1; Gly(cPr) = N[C@H](C(=O)O)C1CC1; X65 = CC1(C(=O)*)CC(F)(F)C1

Columns and labels:
WI-38 cells = assay: MTT proliferation assay, WI-38; format: cell-based; settings: 3 days compound exposure, 1:3 serial dilution starting at 10 μM;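 also: Eight- or ten-point dilution series, with exposure length chosen to span about three to four cell doublings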
NCI-H1048 cells = assay: MTT proliferation assay, NCI-H1048; format: cell-based; settings: 5 days compound exposure, 1:3 serial dilution starting at 10 μM;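 also: Dose-response in 96-well plates over 8 or 10 concentration points, with exposure spanning 3-4 cell doublings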
OVCAR3 cells = assay: MTT proliferation assay, OVCAR3; format: cell-based; settings: 5 days compound exposure, 1:3 serial dilution starting at 10 μM;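 also: compound given as an 8- or 10-point series, one day after plating, with exposure covering roughly 3-4 cell doublings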
CyclinE1/CDK2 = molecular target: T1, CyclinE1/CDK2 (Homo sapiens, UniProt P24864); assay: Fluorescence Polarization (FP) competitive binding assay, Cyclin E1/Cdk2; settings: 10 nM Cyclin E1/Cdk2, 2 nM FAM probe; average of 2-3 independent experiments; read-out: Cyclin E FP IC50;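 also: readings taken after two-hour equilibration at room temperature in HEPES buffer with NaCl, DTT, NP-40 and BSA, IC50 fitted from eight-concentration serial dilution series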
T1 construct: purchased Eurofins, discovery 14-475

CyclinB1/CDK1 = molecular target: T2, CyclinB1/CDK1 (Homo sapiens, UniProt P14635); assay: Fluorescence Polarization (FP) competitive binding assay, Cyclin B1/Cdk1; settings: 10 nM Cyclin B1/Cdk1, 2 nM FAM probe; average of 2-3 independent experiments; read-out: Cyclin B FP IC50;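 also: fluorescence polarization read after equilibration at room temperature, with IC50 taken from serially diluted dose-response curves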
T2 construct: purchased Eurofins, discovery 14-450

CyclinA2/CDK2 = molecular target: T3, CyclinA2/CDK2 (Homo sapiens, UniProt P20248); assay: Fluorescence Polarization (FP) competitive binding assay, Cyclin A2/Cdk2; settings: 8 nM Cyclin A2/Cdk2, 2 nM FAM probe; average of 2-3 independent experiments; read-out: Cyclin A FP IC50;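 also: plates equilibrated two hours at room temperature before polarization reading, IC50 fitted from eight-concentration compound titration curves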
T3 construct: purchased CRELUX Protein Services

Row | SMILES | GI50 (WI-38 cells) [nM] | GI50 (NCI-H1048 cells) [nM] | GI50 (OVCAR3 cells) [nM] | IC50 (CyclinE1/CDK2) [nM] | IC50 (CyclinB1/CDK1) [nM] | IC50 (CyclinA2/CDK2) [nM]
1 | CC(C)C[C@@H]1NC(=O)[C@@H](N(C)C(=O)[C@@H](NC(=O)[C@@H]2C[C@@H](F)CN2C(=O)C2(C(F)(F)F)CC(F)(F)C2)C2CC2)CCCCCCCN(C)C(=O)[C@H](Cc2cc(Cl)ccc2-c2ccc(C3CCN(C)CC3)cc2)N(C)C1=O [Example 358] ({cBuCO(3,3-F2-1-CF3)}-[Pro(trans-4-F)][Gly(cPr)][NMehhhLys(Me)]L[X31]; lactam 3-C) | 2130 | 10 | 10 | 550 | 20 | 20
2 | CC(C)C[C@@H]1NC(=O)[C@@H](N(C)C(=O)[C@@H](NC(=O)[C@@H]2C[C@@H](F)CN2C(=O)C2(C(F)(F)F)CC(F)(F)C2)C2CC2)CCCCCCCN(C)C(=O)[C@H](Cc2cc(Cl)ccc2-c2ccc(CN3CCOCC3)cc2)N(C)C1=O [Example 359, (2S,4R)—N—((S)-2-(((3S,6S,9S)-3-((4-chloro-4′-(morpholinomethyl)-[1,1′-biphenyl]-2-yl)methyl)-6-isobutyl-1,4-dimethyl-2,5,8-trioxo-1,4,7-triazacyclohexadecan-9-yl)(methyl)amino)-1-cyclopropyl-2-oxoethyl)-1-(3,3-difluoro-1-(trifluoromethyl)cyclobutane-1-carbonyl)-4-fluoropyrrolidine-2-carboxamide] ({cBuCO(3,3-F2-1-CF3)}-[Pro(trans-4-F)][Gly(cPr)][NMehhhLys(Me)]L[X108]; lactam 3-C) | 4560 | 10 | 10 | 680 | 20 | 20
3 | CC(C)C[C@@H]1NC(=O)[C@@H](N(C)C(=O)[C@@H](NC(=O)[C@@H]2C[C@@H](F)CN2C(=O)C2(C(F)(F)F)CC(F)(F)C2)C2CC2)CCCCCCCN(C)C(=O)[C@H](Cc2cc(Cl)ccc2-c2ccc(CN3CCN(C)CC3)cc2)N(C)C1=O [Example 360] ({cBuCO(3,3-F2-1-CF3)}-[Pro(trans-4-F)][Gly(cPr)][NMehhhLys(Me)]L[X40]; lactam 3-C) | 2720 | 10 | 10 | 860 | 20 | 20
4 | COc1cc(N2CCOCC2)ccc1-c1ccc(Cl)cc1C[C@H]1C(=O)N(C)CCCCCCC[C@H](N(C)C(=O)[C@@H](NC(=O)[C@@H]2C[C@@H](F)CN2C(=O)C2(C(F)(F)F)CC(F)(F)C2)C2CC2)C(=O)N[C@@H](CC(C)C)C(=O)N1C [Example 361] ({cBuCO(3,3-F2-1-CF3)}-[Pro(trans-4-F)][Gly(cPr)][NMehhhLys(Me)]L[X81]; lactam 3-C) | 14300 | 30 | 10 | 1840 | 20 | 50
5 | CC(C)C[C@@H]1NC(=O)[C@@H](N(C)C(=O)[C@@H](NC(=O)[C@@H]2C[C@@H](F)CN2C(=O)C2(C(F)(F)F)CC(F)(F)C2)C2CC2)CCCCCCCN(C)C(=O)[C@H](Cc2cc(Cl)ccc2-c2ccc(N3C[C@H]4CC[C@@H](C3)N4C)cc2)N(C)C1=O [Example 362] ({cBuCO(3,3-F2-1-CF3)}-[Pro(trans-4-F)][Gly(cPr)][NMehhhLys(Me)]L[X53]; lactam 3-C) | 1280 | 10 | 10 | 600 | 20 | 20
6 | CC(C)C[C@@H]1NC(=O)[C@@H](N(C)C(=O)[C@@H](NC(=O)[C@@H]2C[C@@H](F)CN2C(=O)C2(C(F)(F)F)CC(F)(F)C2)C2CC2)CCCCCCCN(C)C(=O)[C@H](Cc2cc(Cl)ccc2-c2ccc(N3C[C@H]4COC[C@H]4C3)cc2)N(C)C1=O [Example 363] ({cBuCO(3,3-F2-1-CF3)}-[Pro(trans-4-F)][Gly(cPr)][NMehhhLys(Me)]L[X38]; lactam 3-C) | 1430 | 10 | 10 | 470 | 20 | 20
7 | CC(C)C[C@@H]1NC(=O)[C@@H](N(C)C(=O)[C@@H](NC(=O)[C@@H]2C[C@@H](F)CN2C(=O)C2(C(F)(F)F)CC(F)(F)C2)C2CC2)CCCCCCCN(C)C(=O)[C@H](Cc2cc(Cl)ccc2-c2ccc(N3CCN4CCOC[C@H]4C3)cc2)N(C)C1=O [Example 364] ({cBuCO(3,3-F2-1-CF3)}-[Pro(trans-4-F)][Gly(cPr)][NMehhhLys(Me)]L[X21]; lactam 3-C) | 3250 | 10 | 10 | 430 | 20 | 20
8 | CC(C)C[C@@H]1NC(=O)[C@@H](N(C)C(=O)[C@@H](NC(=O)[C@@H]2C[C@@H](F)CN2C(=O)C2(C)CC(F)(F)C2)C2CC2)CCCCCCCN(C)C(=O)[C@H](Cc2cc(Cl)ccc2-c2ccc(N3CCOCC3)cc2)N(C)C1=O [Example 365] (X65-[Pro(trans-4-F)][Gly(cPr)][NMehhhLys(Me)]L[NMePhe(2-(4-MorPh),5-Cl)]; lactam 3-C) | 3180 | 10 | 10 | 1170 | 20 | 20
9 | COc1cc(-c2ccc(Cl)cc2C[C@H]2C(=O)N(C)CCCCCCC[C@H](N(C)C(=O)[C@@H](NC(=O)[C@@H]3C[C@@H](F)CN3C(=O)C3(C(F)(F)F)CC(F)(F)C3)C3CC3)C(=O)N[C@@H](CC(C)C)C(=O)N2C)ccc1N1CCOCC1 [Example 367] ({cBuCO(3,3-F2-1-CF3)}-[Pro(trans-4-F)][Gly(cPr)][NMehhhLys(Me)]L[X91]; lactam 3-C) | 14700 | 20 | 10 | 1100 | 20 | 20
10 | CC(C)C[C@@H]1NC(=O)[C@@H](N(C)C(=O)[C@@H](NC(=O)[C@@H]2C[C@@H](F)CN2C(=O)C2(C(F)(F)F)CC(F)(F)C2)C2CC2)CCCCCCCN(C)C(=O)[C@H](Cc2cc(Cl)ccc2-c2ccc(N3CCN(Cc4ccccn4)CC3)cc2)N(C)C1=O [Example 368] ({cBuCO(3,3-F2-1-CF3)}-[Pro(trans-4-F)][Gly(cPr)][NMehhhLys(Me)]L[X106]; lactam 3-C) | 15200 | 10 | 10 | 480 | 20 | 20
11 | CC(C)C[C@@H]1NC(=O)[C@@H](N(C)C(=O)[C@@H](NC(=O)[C@@H]2C[C@@H](F)CN2C(=O)C2(C(F)(F)F)CC(F)(F)C2)C2CC2)CCCCCCCN(C)C(=O)[C@H](Cc2cc(Cl)ccc2-c2ccc([C@]34CCOC[C@H]3C4)nc2)N(C)C1=O [Example 369] ({cBuCO(3,3-F2-1-CF3)}-[Pro(trans-4-F)][Gly(cPr)][NMehhhLys(Me)]L[X85]; lactam 3-C) | 4540 | 20 | 20 | 1490 | 20 | 20
12 | CC(C)C[C@@H]1NC(=O)[C@@H](N(C)C(=O)[C@@H](NC(=O)[C@@H]2C[C@@H](F)CN2C(=O)C2(C(F)(F)F)CC(F)(F)C2)C2CC2)CCCCCCCN(C)C(=O)[C@H](Cc2cc(Cl)ccc2-c2ccc(C3(F)CCN(C)CC3)cc2)N(C)C1=O [Example 370] ({cBuCO(3,3-F2-1-CF3)}-[Pro(trans-4-F)][Gly(cPr)][NMehhhLys(Me)]L[X45]; lactam 3-C) | 1210 | 20 | 20 | 780 | 20 | 20
13 | CC(C)C[C@@H]1NC(=O)[C@@H](N(C)C(=O)[C@@H](NC(=O)[C@@H]2C[C@@H](F)CN2C(=O)C2(C(F)(F)F)CC(F)(F)C2)C2CC2)CCCCCCCN(C)C(=O)[C@H](Cc2cc(Cl)ccc2-c2ccc(OC3CCN(C)CC3)cc2)N(C)C1=O [Example 371] ({cBuCO(3,3-F2-1-CF3)}-[Pro(trans-4-F)][Gly(cPr)][NMehhhLys(Me)]L[X103]; lactam 3-C) | 1440 | 10 | 10 | 920 | 20 | 20
14 | CC(C)C[C@@H]1NC(=O)[C@@H](N(C)C(=O)[C@@H](NC(=O)[C@@H]2C[C@@H](F)CN2C(=O)C2(C(F)(F)F)CC(F)(F)C2)C2CC2)CCCCCCCN(C)C(=O)[C@H](Cc2cc(Cl)ccc2-c2ccc(N3CCN(Cc4cnn(C)c4)CC3)cc2)N(C)C1=O [Example 372] ({cBuCO(3,3-F2-1-CF3)}-[Pro(trans-4-F)][Gly(cPr)][NMehhhLys(Me)]L[X73]; lactam 3-C) | 2840 | 10 | 10 | 430 | 20 | 20
